# Data published in patent publication US20230203175A1, “Anti-CD40 Antibody Combination Treatment for Cancer” (SEAGEN INC., priority 2020, published 2023).
# Experiments:
# FcγIII receptors = settings: as described in US20170333556A1; cited from earlier work
# CD40 signaling pathway = settings: as described in US20170333556A1; cited from earlier work
# cytokines (IFN-γ, IL-10) = assay: Cytokine production after administration to a patient; format: in vivo; settings: when administered to a patient
# murine CD40 = murine CD40 (Mus musculus, UniProt P27512); assay: Recognition of murine CD40; format: binding
# murine CD40, sequence (P27512 20-289): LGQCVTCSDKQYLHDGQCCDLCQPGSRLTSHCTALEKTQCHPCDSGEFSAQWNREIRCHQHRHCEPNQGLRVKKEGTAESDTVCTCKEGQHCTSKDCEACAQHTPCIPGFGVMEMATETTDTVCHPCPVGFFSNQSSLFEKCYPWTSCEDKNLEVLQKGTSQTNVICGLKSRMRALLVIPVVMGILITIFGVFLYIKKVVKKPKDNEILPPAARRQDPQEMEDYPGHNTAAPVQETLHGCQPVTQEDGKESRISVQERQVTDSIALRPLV
substance,measurement,setting,value
SEA-CD40: non-fucosylated humanized IgG1 anti-CD40 monoclonal antibody; heavy and light chains SEQ ID NOs: 1 and 2,binding to FcγIII receptors,FcγIII receptors,enhanced binding
same,ability to activate the CD40 signaling pathway in immune cells,CD40 signaling pathway,enhanced ability
same,"production of cytokines, including interferon-γ (IFN-γ)","cytokines (IFN-γ, IL-10)",induce production of cytokines
same,"production of immune-dampening cytokines, such as interleukin-10 (IL-10)","cytokines (IFN-γ, IL-10)",does not induce production
same,recognition of murine CD40,murine CD40,does not recognize murine CD40
